In article PMC7009786 (ACS biomaterials science & engineering, 2018):

Columns and labels:
[1] = tested on: ovarian cancer-derived cell lines; assay type: cell-based
ES-2 cells = test: Cell viability after 72 h incubation; assay type: cell-based; conditions: ES-2 (Pt-sensitive), 18.4 μM, mean of N=3, Pt-NLS purity 87%
TOV-21G cells = test: Cell viability after 72 h incubation; assay type: cell-based; conditions: TOV-21G (Pt-sensitive), 56.6 μM, mean of N=3, Pt-NLS purity 87%
[2] = after 150 days; cited from earlier work

Row | Compound | cytotoxicity in vitro (in words) [1] | decrease of cell viability (ES-2 cells) | decrease of cell viability (TOV-21G cells) | hydrolysed species [2] [%]
1 | PKKKRKV [Pt-NLS hybrid] | high cytotoxicity, significantly superior to carboplatin | ~ 30% | ~ 50% | 
2 | O=C1[O][Pt]2([NH][C@@H]3CCCC[C@H]3[NH]2)[O]C1=O [oxaliplatin] |  |  |  | 3
3 | N.N.O=C([O-])C1(C(=O)[O-])CCC1.[Pt+2] [carboplatin, Carboplatin] |  | 20% | 40% | 3
